The source of these data is patent US12540134B2, “Inhibitors of adrenoreceptor ADRAC2” (Bayer Aktiengesellschaft, priority 2019, dated 2026).

The structures appear in SMILES notation.

T1 sequence (P18825 whole entry): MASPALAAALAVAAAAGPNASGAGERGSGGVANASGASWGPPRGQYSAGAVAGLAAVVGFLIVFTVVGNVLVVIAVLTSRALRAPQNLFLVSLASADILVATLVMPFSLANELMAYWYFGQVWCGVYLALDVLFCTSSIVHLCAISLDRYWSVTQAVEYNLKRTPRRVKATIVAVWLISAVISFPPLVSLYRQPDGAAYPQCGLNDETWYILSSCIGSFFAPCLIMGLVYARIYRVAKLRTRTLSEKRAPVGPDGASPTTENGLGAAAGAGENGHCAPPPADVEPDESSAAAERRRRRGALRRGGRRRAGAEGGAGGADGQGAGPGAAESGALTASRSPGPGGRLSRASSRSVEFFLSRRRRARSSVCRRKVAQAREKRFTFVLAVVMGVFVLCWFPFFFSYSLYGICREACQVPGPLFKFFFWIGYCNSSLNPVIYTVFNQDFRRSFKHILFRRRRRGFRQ

The first test concerns the target T1, human ADRA2C receptor (Homo sapiens (Human), UniProt P18825). As to the kind of experiment: In vitro radioligand binding study, competition assay with [3H] rauwolscine (Eurofins Panlabs). The note with it: calculated from IC50 and Kd with the Cheng Prusoff equation; [3H] rauwolscine competition; read-out: hARα2C Ki. As to the method: B-1 In Vitro Radioligand Binding Studies for Determination of the Dissociation Constants Ki at the Human Adrenoreceptor ADRA2C (Eurojins Panlabs Discovery Services, Taiwan, Ltd)
A competition assay based on [^3H] rauwolscine as radioliganden was used to determine the binding affinity of the test substances at the human ADRA2C receptor.
To configure the competition assay, the equilibrium dissociation constant Kd of the radioligand [^3H] rauwolscine was determined in a saturation experiment. To this end, homogenates of CHO-K1 cells recombinantly expressing the human ADRA2C receptor were incubated with increasing concentrations of the radiotracers for 1 h at 4° C. in binding buffer (50 mM Tris-HCl, 1 mM EDTA, pH 7.4). Unspecific binding was determined by addition of an excess of the not radioactively labelled ligand prazosin (10 μM). The radioactivity was determined in a scintiation counter.
The competition experiments were carried out in the presence of 0.5 nM [^3H] rauwolscine and increasing concentrations of the test substances to be characterized under the conditions described above.
From the IC50 value measured in the competition experiment and the Kd value from the saturation experiment, the equilibrium constant Ki of the inhibitor, which describes the affinity of the test substances to the receptor, was calculated using the Cheng Prusoff equation [Cheng Y, Prusoff W H. Relationship between the inhibition constant (Ki) and the concentration of inhibitor which causes 50 percent inhibition (ISO) of an enzymatic reaction. […] PMID 4202581 PMID: 4202581].
Broadly, the Ki is the dissociation constant of the complex between target and ligand, obtained from inhibition or displacement. As for `CCOC1CCCN(C2CCN(c3ncc(C(=O)NCc4ncc(F)cc4F)s3)CC2)C1` (single isomer, unassigned) [Example 124, ent-N-[(3,5-Difluoropyridin-2-yl)methyl]-2-(3-ethoxy[1,4′-bipiperidin]-1′-yl)-1,3-thiazole-5-carboxamide], the Ki was 0.0023 µM.

For the compound `C[C@@H]1CCCN(C2CCN(c3ncc(C(=O)NCc4ncc(F)cc4F)s3)CC2)C1` [Example 1, N-[(3,5-Difluoropyridin-2-yl)methyl]-2-[(3R)-3-methyl[1,4′-bipiperidin]-1′-yl]-1,3-thiazole-5-carboxamide], the Ki is 0.024 µM.

In the case of `O=C(NCc1ncc(F)cc1F)c1cnc(N2CCC(N3CCC[C@@H](CF)C3)CC2)s1` [Example 41, N-[(3,5-Difluoropyridin-2-yl)methyl]-2-[(3R)-3-(fluoromethyl)[1,4′-bipiperidin]-1′-yl]-1,3-thiazole-5-carboxamide], the Ki was 0.056 µM.

For `O=C(NCc1ncc(F)cc1F)c1cnc(N2CCC(N3CCCC4(CC4)C3)CC2)s1` [Example 64, 2-[4-(5-Azaspiro[2.5]octan-5-yl)piperidin-1-yl]-N-[(3,5-difluoropyridin-2-yl)methyl]-1,3-thiazole-5-carboxamide], the Ki is 0.0028 µM.

The test is the same for the next values; noted with them: displacement of 0.5 nM [3H] rauwolscine; homogenates of CHO-K1 cells expressing human ADRA2C; 1 h, 4° C.; read-out: hARα2C IC50.
Broadly, the IC50 is the concentration that gives 50% inhibition. Turning to `CCOC1CCCN(C2CCN(c3ncc(C(=O)NCc4ncc(F)cc4F)s3)CC2)C1` (single isomer, unassigned) [Example 124, ent-N-[(3,5-Difluoropyridin-2-yl)methyl]-2-(3-ethoxy[1,4′-bipiperidin]-1′-yl)-1,3-thiazole-5-carboxamide], the concentration for half-maximal inhibition (IC50) came out at 0.0051 µM.

Take `C[C@@H]1CCCN(C2CCN(c3ncc(C(=O)NCc4ncc(F)cc4F)s3)CC2)C1` [Example 1, N-[(3,5-Difluoropyridin-2-yl)methyl]-2-[(3R)-3-methyl[1,4′-bipiperidin]-1′-yl]-1,3-thiazole-5-carboxamide]: the IC50 amounted to 0.054 µM.

As for `O=C(NCc1ncc(F)cc1F)c1cnc(N2CCC(N3CCC[C@@H](CF)C3)CC2)s1` [Example 41, N-[(3,5-Difluoropyridin-2-yl)methyl]-2-[(3R)-3-(fluoromethyl)[1,4′-bipiperidin]-1′-yl]-1,3-thiazole-5-carboxamide], the IC50 was found to be 0.13 µM.

As for `O=C(NCc1ncc(F)cc1F)c1cnc(N2CCC(N3CCCC4(CC4)C3)CC2)s1` [Example 64, 2-[4-(5-Azaspiro[2.5]octan-5-yl)piperidin-1-yl]-N-[(3,5-difluoropyridin-2-yl)methyl]-1,3-thiazole-5-carboxamide], the IC50 stood at 0.0062 µM.

In a further test the target is T1, human ADRA2C receptor. Nature of the test: In vitro activity assay, inhibition of recombinant ADRA2C (CHO-K1 cells coexpressing Gαq and aequorin, noradrenaline-induced bioluminescence). The note with it: inhibition of agonist (noradrenaline)-induced bioluminescence signal; some values are means of multiple determinations; read-out: ARα2C IC50. The class given is cell-based. On the procedure: B-2. In Vitro Activity Assay to Determine the Inhibition of Recombinant ADRA2C
The human ADRA2C receptor belongs to the G protein (guanine-dependent protein)-coupled receptors, the main function of which is the transduction of signals into the interior of the cell.
The investigations of the inhibition of the recombinant human ADRA2C receptors were carried out with stably transfected CHO-K1 cells coexpressing the Gαq protein and the calcium-sensitive photoprotein aequorin. In this recombinant system, binding of the agonists noradrenaline to the ADRA2C receptor leads, after activation of a signal cascade, to calcium release from intracellular stores, which is detected by the intracellular calcium sensor aequorin as a bioluminescent signal. The method is described in detail in the reference below. [Wunder F., Kalthof B., Muller T., Hueser J. Functional Cell-Based Assays in Microliter Volumes for Ultra-High Throughput Screening. Combinatorial Chemistry & High Throughput Screening, Volume 11, Number 7, 2008, pp. 495-504(10). doi.org/10.2174/138620708785204054]
The activity of the test substances was determined via their ability to inhibit the agonist-induced increase of the bioluminescence signal. The concentration which can block half of this signal increase is referred to as IC50. The IC50 value is calculated using the 4 parameter logistic function (Hill function):
Top=upper threshold, Bottom=lower threshold, Slope=slope, IC50=turning point
For the compound `C[C@@H]1CCCN(C2CCN(c3ncc(C(=O)NCc4cc(Cl)ccc4F)s3)CC2F)C1` (mixture of isomers) [Example 113, diamix-N-(5-Chloro-2-fluorobenzyl)-2-[(3R)-3′-fluoro-3-methyl[1,4′-bipiperidin]-1′-yl]-1,3-thiazole-5-carboxamide], the IC50 worked out at 0.00061 µM.

In the case of `O=C(NCc1ncc(F)cc1F)c1cnc(N2CCC(N3CCCC(C4CC4)C3)CC2)s1` (racemic) [Example 137, 2-(3-cyclopropyl[1,4′-bipiperidin]-1′-yl)-N-[(3,5-difluoropyridin-2-yl)methyl]-1,3-thiazole-5-carboxamide], the IC50 came out at 0.019 µM.

As to `O=C(NCc1ncc(F)cc1F)c1cnc(N2CCC(N3CCCC(C4CCC4)C3)CC2)s1` (racemic) [Example 138, 2-(3-cyclobutyl[1,4′-bipiperidin]-1′-yl)-N-[(3,5-difluoropyridin-2-yl)methyl]-1,3-thiazole-5-carboxamide], the IC50 is 0.0065 µM.

Take `COCCC1CCCN(C2CCN(c3ncc(C(=O)NCc4ncc(F)cc4F)s3)CC2)C1` (racemic) [Example 148, N-[(3,5-difluoropyridin-2-yl)methyl]-2-[3-(2-methoxyethyl)[1,4′-bipiperidin]-1′-yl]-1,3-thiazole-5-carboxamide]: the IC50 stood at 0.0013 µM.

Consider `CC(C)(C)C1CCCN(C2CCN(c3ncc(C(=O)NCc4ncc(F)cc4F)s3)CC2)C1` (racemic) [Example 149, 2-(3-tert-butyl[1,4′-bipiperidin]-1′-yl)-N-[(3,5-difluoropyridin-2-yl)methyl]-1,3-thiazole-5-carboxamide], for which the IC50 was 0.035 µM.

For `O=C(NCc1ncc(F)cc1F)c1cnc(N2CCCC(N3CCCC4(CC4)C3)CC2)s1` (racemic) [Example 153, rac-2-[4-(5-Azaspiro[2.5]octan-5-yl)azepan-1-yl]-N-[(3,5-difluoropyridin-2-yl)methyl]-1,3-thiazole-5-carboxamide], the IC50 is 0.023 µM.

Turning to `C[C@@H]1CCCN(C2CCN(c3ncc(C(=O)NC[C@H](C)c4ccccc4)s3)CC2)C1` (relative stereo) [Example 83, rel-2-[(3R)-3-methyl[1,4′-bipiperidin]-1′-yl]-N-[(2R)-2-phenylpropyl]-1,3-thiazole-5-carboxamide], the IC50 came to 0.0981 µM.

As for `Cc1ccc([C@@H](C)NC(=O)c2cnc(N3CCC(N4CCC[C@@H](C)C4)CC3)s2)cc1` (relative stereo) [Example 95, rel-2-[(3R)-3-methyl[1,4′-bipiperidin]-1′-yl]-N-[(1R)-1-(4-methylphenyl)ethyl]-1,3-thiazole-5-carboxamide], the IC50 came to 0.8 µM.

Regarding `CC(NC(=O)c1cnc(N2CCC(N3CCC[C@@H](C)C3)CC2)s1)c1cc(F)ccc1F` (single isomer, unassigned) [Example 46], the IC50 came to 0.0083 µM.

`C[C@@H]1CCCN(C2CCN(c3nc(C(=O)NCc4ncc(F)cc4F)cs3)CC2F)C1` (single isomer, unassigned) [Example 157]: the IC50 was determined as 0.0027 µM.

In the case of `C[C@@H]1CCCN(C2CCN(c3nc(C(=O)NCc4ncc(F)cc4F)cs3)CC2F)C1` (single isomer, unassigned) [Example 158], the IC50 turned out to be 0.098 µM.

Regarding `C[C@@H]1CCCN(C2CCN(c3nc(C(=O)NCc4ncc(F)cc4F)co3)CC2F)C1` (single isomer, unassigned) [Example 159], the IC50 was 0.025 µM.

As for `C[C@@H]1CCCN(C2CCN(c3nc(C(=O)NCc4ncc(F)cc4F)co3)CC2F)C1` (single isomer, unassigned) [Example 160], the half-inhibitory concentration (IC50) was 0.435 µM.

As to `CC1CC(N2CCC[C@@H](C)C2)CCN1c1ncc(C(=O)NCc2ncc(F)cc2F)s1` (single isomer, unassigned) [Example 161], the IC50 was 0.233 µM.

`CCC1CN(c2ncc(C(=O)NCc3ncc(F)cc3F)s2)CCC1N1CCC[C@@H](C)C1` (single isomer, unassigned) [Example 162]: the IC50 worked out at 0.81 µM.

For `CCC1CN(c2ncc(C(=O)NCc3ncc(F)cc3F)s2)CCC1N1CCC[C@@H](C)C1` (single isomer, unassigned) [Example 163], the IC50 amounted to 0.48 µM.

On to `CC1CN(c2ncc(C(=O)NCc3ncc(F)cc3F)s2)CCC1N1CCC[C@@H](C)C1` (single isomer, unassigned) [Example 164], for which the IC50 stood at 0.024 µM.

With `CC1CN(c2ncc(C(=O)NCc3ncc(F)cc3F)s2)CCC1N1CCC[C@@H](C)C1` (single isomer, unassigned) [Example 165], the IC50 was 0.41 µM.

For the compound `C[C@@H]1CCCN(C2CCN(c3ncc(C(=O)NCc4cccc(C(F)(F)F)n4)s3)CC2)C1` [Example 32], the IC50 was determined as 0.64 µM.

Consider `O=C(NCc1ncc(F)cc1F)c1cnc(N2CCC(N3CCC[C@@H](C(F)(F)F)C3)CC2)s1` [Example 43, N-[(3,5-Difluoropyridin-2-yl)methyl]-2-[(3R)-3-(trifluoromethyl)[1,4′-bipiperidin]-1′-yl]-1,3-thiazole-5-carboxamide], for which the IC50 came to 0.261 µM.

`CC(NC(=O)c1cnc(N2CCC(N3CCC[C@@H](C)C3)CC2)s1)c1cc(F)ccc1F` (stereo partly drawn) [Example 47, N-[1-(2,5-Difluorophenyl)ethyl]-2-[(3R)-3-methyl[1,4′-bipiperidin]-1′-yl]-1,3-thiazole carboxamide]: the IC50 was 0.025 µM.

On to `C[C@@H]1CCCN(C2CCN(c3ncc(C(=O)Nc4ccc(F)cc4Cl)s3)CC2)C1` [Example 88, N-(2-chloro-4-fluorophenyl)-2-[(3R)-3-methyl[1,4′-bipiperidin]-1′-yl]-1,3-thiazole-5-carboxamide], for which the IC50 worked out at 0.489 µM.

Regarding `C[C@@H]1CCCN(C2CCN(c3ncc(C(=O)N(C)Cc4cccnc4)s3)CC2)C1` [Example 90, N-methyl-2-[(3R)-3-methyl[1,4′-bipiperidin]-1′-yl]-N-(pyridin-3-ylmethyl)-1,3-thiazole-5-carboxamide], the IC50 is 0.971 µM.

Take `C[C@@H]1CCCN(C2CCN(c3nnc(C(=O)NCc4ncc(F)cc4F)s3)CC2)C1` [Example 152, N-[(3,5-difluoropyridin-2-yl)methyl]-5-[(3R)-3-methyl[1,4′-bipiperidin]-1′-yl]-1,3,4-thiadiazole-2-carboxamide]: the IC50 came to 0.66 µM.

Turning to `O=C(NCc1ncc(F)cc1F)c1cnc(N2CCCC(N3CCCC4(C3)CC4(F)F)CC2)s1` (stereo not drawn) [Example 156, diamix-2-[4-(1,1-Difluoro-5-azaspiro[2.5]octan-5-yl)azepan-1-yl]-N-[(3,5-difluoropyridin-2-yl)-methyl]-1,3-thiazole-5-carboxamide], the IC50 stood at 0.036 µM.
